This is an account of results in patent US9120756B2, “Substituted phenylureas and phenylamides as vanilloid receptor ligands” (Gruenenthal GmbH, priority 2009, dated 2015).

Structures are written as SMILES.

In assay [1] the target is rat-species vanilloid receptor 1 (VR1/TRPV1) (Rattus norvegicus (Rat), UniProt O35433). In words: FLIPR Ca2+ influx assay on rat dorsal root ganglia cells, capsaicin stimulus (method I). The format is cell-based. Particulars: capsaicin (Cap).
Another assay addresses hVR1 (Homo sapiens (Human), UniProt Q8NER1). Kind of assay: FLIPR Ca2+ influx assay on CHO K1 cells transfected with the VR1 gene, capsaicin stimulus (method II). The format is cell-based. As to conditions: capsaicin (Cap), read-out: Ki (human being) [nM] Cap.

rat-species vanilloid receptor 1 (VR1/TRPV1), sequence (O35433 whole entry): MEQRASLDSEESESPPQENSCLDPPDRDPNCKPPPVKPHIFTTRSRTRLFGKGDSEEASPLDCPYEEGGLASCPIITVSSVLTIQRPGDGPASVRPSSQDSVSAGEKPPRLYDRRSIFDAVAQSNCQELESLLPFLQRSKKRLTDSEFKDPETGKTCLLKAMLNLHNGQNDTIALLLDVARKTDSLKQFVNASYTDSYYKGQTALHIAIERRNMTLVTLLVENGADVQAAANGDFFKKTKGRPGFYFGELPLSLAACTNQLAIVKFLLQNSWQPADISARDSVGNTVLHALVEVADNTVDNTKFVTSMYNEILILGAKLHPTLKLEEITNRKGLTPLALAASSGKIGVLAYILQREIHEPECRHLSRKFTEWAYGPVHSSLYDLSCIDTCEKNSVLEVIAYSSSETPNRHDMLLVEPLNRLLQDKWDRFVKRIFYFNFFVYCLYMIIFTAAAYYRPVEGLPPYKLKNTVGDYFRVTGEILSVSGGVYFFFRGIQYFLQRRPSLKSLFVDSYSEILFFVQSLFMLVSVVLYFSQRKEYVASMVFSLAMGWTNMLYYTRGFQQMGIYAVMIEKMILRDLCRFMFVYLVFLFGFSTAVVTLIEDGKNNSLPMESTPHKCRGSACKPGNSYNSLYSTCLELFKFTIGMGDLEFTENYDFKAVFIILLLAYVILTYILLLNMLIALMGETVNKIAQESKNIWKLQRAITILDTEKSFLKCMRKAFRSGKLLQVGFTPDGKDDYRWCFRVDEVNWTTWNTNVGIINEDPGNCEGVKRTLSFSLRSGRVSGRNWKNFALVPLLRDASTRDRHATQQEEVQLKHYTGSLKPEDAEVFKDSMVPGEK
hVR1, sequence (Q8NER1 whole entry): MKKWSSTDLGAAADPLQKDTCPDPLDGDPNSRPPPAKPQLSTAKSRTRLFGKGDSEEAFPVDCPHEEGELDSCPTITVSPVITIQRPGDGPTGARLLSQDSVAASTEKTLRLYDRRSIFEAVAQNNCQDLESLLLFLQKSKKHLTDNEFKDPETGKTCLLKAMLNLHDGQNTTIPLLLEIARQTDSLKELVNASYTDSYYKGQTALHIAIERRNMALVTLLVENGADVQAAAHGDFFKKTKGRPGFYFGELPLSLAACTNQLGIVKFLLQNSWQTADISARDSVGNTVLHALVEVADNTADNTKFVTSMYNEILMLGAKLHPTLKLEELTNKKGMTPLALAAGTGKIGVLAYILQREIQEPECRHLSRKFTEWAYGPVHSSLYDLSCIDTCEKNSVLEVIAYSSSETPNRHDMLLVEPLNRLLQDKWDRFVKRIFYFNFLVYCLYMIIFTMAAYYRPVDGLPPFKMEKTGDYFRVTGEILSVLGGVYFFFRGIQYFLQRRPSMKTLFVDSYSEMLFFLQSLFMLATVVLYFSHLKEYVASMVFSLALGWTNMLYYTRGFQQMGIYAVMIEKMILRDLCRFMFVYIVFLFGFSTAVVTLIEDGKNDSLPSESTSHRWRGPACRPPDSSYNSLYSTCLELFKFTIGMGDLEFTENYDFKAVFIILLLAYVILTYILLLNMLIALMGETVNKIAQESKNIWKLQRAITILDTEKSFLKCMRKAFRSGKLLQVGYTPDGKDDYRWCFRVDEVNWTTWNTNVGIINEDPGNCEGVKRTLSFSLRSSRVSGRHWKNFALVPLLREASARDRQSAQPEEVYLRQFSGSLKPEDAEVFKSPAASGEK

As for `O=C(Cc1cccc(F)c1)NCc1cc(C(F)(F)F)nn1-c1cccc(Cl)c1` [Example 74, N-((1-(3-chlorophenyl)-3-(trifluoromethyl)-1H-pyrazol-5-yl)methyl)-2-(3-fluorophenyl)acetamide], the Ki in assay [1] amounted to 85 nM; on hVR1, 51.8 nM.
